Reference: ChEMBL document CHEMBL4828704, “Efophylins A and B, Two C2-Asymmetric Macrodiolide Immunosuppressants from Streptomyces malaysiensis” (J Nat Prod, 2021)
Activity calls are given as the source filed them. The rule behind the calls is not given here.

Experiments:
[1] = biological target: Calcineurin subunit B type 1 (Homo sapiens, UniProt P63098); test: Inhibition of CNB (unknown origin) using p-NPP as substrate preincubated for 10 mins followed by substrate addition by spectrophotometry analysis
Calcineurin subunit B type 1, sequence (P63098 2-170 limits assumed): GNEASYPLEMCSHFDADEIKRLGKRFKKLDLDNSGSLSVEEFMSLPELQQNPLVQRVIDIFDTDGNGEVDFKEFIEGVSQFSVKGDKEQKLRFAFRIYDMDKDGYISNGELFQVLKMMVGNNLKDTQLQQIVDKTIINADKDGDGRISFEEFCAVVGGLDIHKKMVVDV

[2] = Inhibition of ConA-induced proliferation of BALB/c mouse splenocyte measured after 72 hrs by CCK-8 assay; type: functional, tissue-based
Splenocyte [3] = test: Cytotoxicity against BALB/c mouse splenocyte assessed as reduction in cell viability measured after 72 hrs by CCK-8 assay; type: cell-based
T-cell [4] = test: Inhibition of ConA-induced IL-2 expression in BALB/c mouse T-lymphocyte measured after 24 hrs by ELISA; type: functional, tissue-based
Splenocyte [5] = test: Immunosuppressive activity in C57BL/6 mouse splenocyte assessed as inhibition of mixed lymphocyte reaction when cocultured with mitomycin-C pretreated BALB/c mouse splenocyte measured up to 72 hrs by CCK-8 assay; type: functional, cell-based; settings: C57BL/6, Splenocyte
Splenocyte [6] = test: Inhibition of NFAT phosphorylation in BALB/c mouse splenocyte at 5 to 30 uM by immunoblotting analysis; type: tissue-based; settings: dose 5-30 µM
Splenocyte [7] = test: Inhibition of NFAT activation in BALB/c mouse splenocyte at 5 to 30 uM by immunoblotting analysis; type: tissue-based; settings: dose 5-30 µM
T-cell [8] = test: Inhibition of ConA-induced IL-2 expression in BALB/c mouse T-lymphocyte at 40 uM measured after 24 hrs by ELISA; type: functional, tissue-based

Compound	inhibition [1]	IC50 [2] [µM]	IC50 (Splenocyte [3]) [µM]	inhibition (T-cell [4])	IC50 [1] [µM]	IC50 (Splenocyte [5]) [µM]	inhibition (Splenocyte [6])	inhibition (Splenocyte [7])	inhibition (T-cell [8])
CC[C@@H]1[C@@H](C)O[C@@](O)([C@@H](C)[C@H](O)[C@H](C)[C@H]2OC(=O)/C=C/C=C/[C@H](C)[C@@H]([C@@H](C)[C@@H](O)[C@H](C)C(O)/C=C/[C@H](CC)[C@@H](C)O)OC(=O)/C=C/C=C/[C@@H]2C)C[C@H]1O[C@H]1C[C@H](O)[C@H](O)[C@H](C)O1 (some centres undefined)	inactive								
CC[C@@H]1[C@@H](C)O[C@@](OC)([C@@H](C)[C@H](O)[C@H](C)[C@H]2OC(=O)/C=C/C=C/[C@H](C)[C@@H]([C@@H](C)[C@@H](O)[C@H](C)C(O)/C=C/[C@H](CC)[C@@H](C)O)OC(=O)/C=C/C=C/[C@@H]2C)C[C@H]1O[C@H]1C[C@H](O)[C@H](O)[C@H](C)O1 (some centres undefined)		24.6	49	Dose-Dependent Effect	24	27.9	Active	Active	Active
